According to patent publication US20240002391A1, “4-ALKOXYPYRROLO[2,1-F][1,2,4]TRIAZINES AND PREPARATION AND USES THEREOF” (BioSplice Therapeutics, Inc., priority 2022, published 2024):

Target: recombinant DYRK1A kinase (Homo sapiens (Human), UniProt Q13627)
Assay: DYRK1A kinase assay (Ser/Thr 18 peptide Z-lyte FRET)
Type: biochemical
Conditions: DYRK1A kinase activity, Z-lyte Ser/Thr 18 peptide, 15 μM ATP; method text calls the value IC50; read-out: EC50 (the source's name)
In short: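 Recombinant enzyme (0.25 μg/mL final) was incubated with 15 μM ATP, 4 μM Ser/Thr 18 peptide and compound (11-point 1:3 series from 10 μM) for 1 h at room temperature, in duplicate. Development reagent was added for 1 h, and coumarin/fluorescein emission ratio gave % phosphorylation; IC50 by non-linear regression.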

SMILES	IC50 [nM]
COc1nc(N[C@H]2CCN(C3(C#N)COC3)C[C@H]2F)nn2ccc(-c3ccc4nnn(C(C)C)c4c3)c12 [Compound 690, 3-((3R,4S)-3-fluoro-4-((5-(1-isopropyl-1H-benzo[d][1,2,3]triazol-6-yl)-4-methoxypyrrolo[2,1-f][1,2,4]triazin-2-yl)amino)piperidin-1-yl)oxetane-3-carbonitrile]	7.8
COc1nc(N[C@H]2C[C@@](C)(NC(C)=O)C2)nn2ccc(-c3cnc4nccn4c3)c12 [Compound 934, N-((1s,3s)-3-((5-(Imidazo[1,2-a]pyrimidin-6-yl)-4-methoxypyrrolo[2,1-f][1,2,4]triazin-2-yl)amino)-1-methylcyclobutyl)acetamide]	1.6
COc1nc(N[C@H]2CC[C@](C)(O)CC2)nn2ccc(-c3cc(F)c4nc(C)n(C(C)C)c4c3)c12 [Compound 168, trans-4-((5-(4-Fluoro-1-isopropyl-2-methyl-1H-benzo[d]imidazol-6-yl)-4-methoxypyrrolo[2,1-f][1,2,4]triazin-2-yl)amino)-1-methylcyclohexan-1-ol]	2.7
COc1nc(N[C@H]2CC[C@](C)(O)CC2)nn2ccc(-c3ccc4nncn4c3)c12 [Compound 187, trans-4-((5-([1,2,4]Triazolo[4,3-a]pyridin-6-yl)-4-methoxypyrrolo[2,1-f][1,2,4]triazin-2-yl)amino)-1-methylcyclohexan-1-ol]	100
COc1nc(NC2CC3(CCN(C(C)=O)CC3)C2)nn2ccc(-c3ccn4nccc4c3)c12 [Compound 39, 1-(2-((4-Methoxy-5-(pyrazolo[1,5-a]pyridin-5-yl)pyrrolo[2,1-f][1,2,4]triazin-2-yl)amino)-7-azaspiro[3.5]nonan-7-yl)ethan-1-one]	2.9
COc1nc(N[C@H]2CC[C@@H](C(F)(F)F)CC2)nn2ccc(-c3cnc4nccn4c3)c12 [Compound 239, 5-(Imidazo[1,2-a]pyrimidin-6-yl)-4-methoxy-N-(cis-4-(trifluoromethyl)cyclohexyl)pyrrolo[2,1-f][1,2,4]triazin-2-amine]	2.9
COc1nc(N[C@H]2CC[C@](C)(O)CC2)nn2ccc(-c3ccc4nc(C)n(CCO)c4c3)c12 [Compound 172, trans-4-((5-(1-(2-Hydroxyethyl)-2-methyl-1H-benzo[d]imidazol-6-yl)-4-methoxypyrrolo[2,1-f][1,2,4]triazin-2-yl)amino)-1-methylcyclohexan-1-ol]	2.5
COc1nc(NC2CCC3(CC2)CNC3)nn2ccc(-c3ccc4ncnn4c3)c12 [Compound 195, 5-([1,2,4]Triazolo[1,5-a]pyridin-6-yl)-4-methoxy-N-(2-azaspiro[3.5]nonan-7-yl)pyrrolo[2,1-f][1,2,4]triazin-2-amine]	3.9
COc1nc(N[C@H]2CC[C@](C)(O)CC2)nn2ccc(-c3cc4cnccc4[nH]3)c12 [Compound 282, trans-4-((4-Methoxy-5-(1H-pyrrolo[3,2-c]pyridin-2-yl)pyrrolo[2,1-f][1,2,4]triazin-2-yl)amino)-1-methylcyclohexan-1-ol]	13.6
CNC(=O)c1cnn2ccc(-c3ccn4nc(NC5CCC6(CC5)COC6)nc(OC)c34)cc12 [Compound 102, 5-(2-((2-Oxaspiro[3.5]nonan-7-yl)amino)-4-methoxypyrrolo[2,1-f][1,2,4]triazin-5-yl)-N-methylpyrazolo[1,5-a]pyridine-3-carboxamide]	1.9
COc1nc(N[C@H]2CN(C3COC3)C[C@H]2F)nn2ccc(-c3ccc4nccnc4c3)c12 [Compound 356, N-((3S,4R)-4-Fluoro-1-(oxetan-3-yl)pyrrolidin-3-yl)-4-methoxy-5-(quinoxalin-6-yl)pyrrolo[2,1-f][1,2,4]triazin-2-amine]	8.8
COc1nc(N[C@H]2CCN(C3COC3)C[C@H]2F)nn2ccc(-c3ccc4nccnc4c3)c12 [Compound 374, N-((3R,4S)-3-Fluoro-1-(oxetan-3-yl)piperidin-4-yl)-4-methoxy-5-(quinoxalin-6-yl)pyrrolo[2,1-f][1,2,4]triazin-2-amine]	2.9
